Measured values published in patent US9364457B2, “Method for manufacturing composition for lowering blood lipid and elevating high-density lipoprotein” (SunWay Biotech Co., Ltd., priority 2011, dated 2016).

How the values were obtained:
[1] = system: cholesterol biosynthesis; assay: Cell experiment on inhibition of cholesterol biosynthesis; format: cell-based; conditions: cells treated with the same concentration, 100 ppb
Text: In order to compare the inhibitory effect of cholesterol biosynthesis by monascin, ankaflavin and monacolin K, the present invention applies a cell experiment and treats cells with monascin, ankaflavin and monacolin K with the same concentration (100 ppb) for researching the influence of these ingredients on the cholesterol biosynthesis.

[2] = system: hamsters feed with high cholesterol diet; assay: Cholesterol parameters in blood of hamsters fed high cholesterol diet; format: in vivo; conditions: ratio of LDL-C to HDL-C, hamsters on high cholesterol diet, 8 weeks
Protocol: Additionally, a composition containing monacolin K is utilized as a comparison group, which is called as MK for abbreviation.
Firstly, the experiment utilizes hamsters feed with high cholesterol diet as experimental animals, which are then feed with MS, AF, MS+AF, and MK for 8 weeks, and then each of cholesterol parameters in blood of the hamsters are analyzed. The cholesterol parameters include total cholesterol (TC), triglyceride (TG), high density lipoprotein cholesterol (HDL-C), low density lipoprotein cholesterol (LDL-C), ratio of LDL-C to HDL-C, and malondialdehyde (MDA). […] Additionally, a normal diet group is referred to as NOR, and a high cholesterol diet group is referred to as HC.

[3] = system: lipid plaque on arterial vascular walls in the thoracic cavity; assay: Lipid plaque staining in arteries of high cholesterol diet animals; format: in vivo, hamsters; conditions: high cholesterol diet for eight weeks, human-equivalent per day: MK 2.89 mg, MS 9.82 mg, AF 1.43 mg
Protocol: Firstly, the experiment utilizes hamsters feed with high cholesterol diet as experimental animals, which are then feed with MS, AF, MS+AF, and MK for 8 weeks, and then each of cholesterol parameters in blood of the hamsters are analyzed. The cholesterol parameters include total cholesterol (TC), triglyceride (TG), high density lipoprotein cholesterol (HDL-C), low density lipoprotein cholesterol (LDL-C), ratio of LDL-C to HDL-C, and malondialdehyde (MDA). The amount of the MK taken by the experimental animals is equivalent to 2.89 mg taken by an adult human per day. Additionally, a normal diet group is referred to as NOR, and a high cholesterol diet group is referred to as HC.
Another important indicator for evaluating atherosclerosis is the analysis of lipid plaque staining in arteries, and the results of lipid plaque staining can indicate that whether lipid plaque deposits on arterial vascular walls. Large amounts of lipid with over-oxidation can cause bulk deposition of foam cells, and then the vascular walls lose elasticity and large amounts of lipid plaque are deposited, so as to lead to atherosclerosis. Referring to FIG. 11, which is a diagram of quantitative results of the lipid plaque staining experiment.

SMILES: CC[C@H](C)C(=O)O[C@H]1C[C@@H](C)C=C2C=C[C@H](C)[C@H](CC[C@@H]3C[C@@H](O)CC(=O)O3)[C@H]21 [MK, monacolin K]
- inhibition of cholesterol biosynthesis (FIG. 12) [1]: weakest effect
- LDL/HDL [2]: 0.489
- amount of lipid plaque on arterial vascular walls (lipid plaque staining, FIG. 11) [3]: can lower the amount of lipid plaque
